Patent US20220106304A1, “Transcription Factor BRN2 Inhibitory Compounds as Therapeutics and Methods for Their Use” (The University of British Columbia, priority 2018, published 2022)

Tests used:
BRN2 = target: T1, BRN2 (Homo sapiens, UniProt P20265); assay: cell-based; conditions: negative = activation; for inhibition at 10 µM: read-out: % BRN2 Inhibition (10 μM), 10 μM compound, 24 hours, 42D^ENZR cells stably expressing BRN2-luciferase reporter; for inhibition at 30 µM: read-out: % BRN2 Inhibition (30 μM), 30 μM compound, 24 hours, 42D^ENZR cells stably expressing BRN2-luciferase reporter
T1 sequence (P20265 1-443): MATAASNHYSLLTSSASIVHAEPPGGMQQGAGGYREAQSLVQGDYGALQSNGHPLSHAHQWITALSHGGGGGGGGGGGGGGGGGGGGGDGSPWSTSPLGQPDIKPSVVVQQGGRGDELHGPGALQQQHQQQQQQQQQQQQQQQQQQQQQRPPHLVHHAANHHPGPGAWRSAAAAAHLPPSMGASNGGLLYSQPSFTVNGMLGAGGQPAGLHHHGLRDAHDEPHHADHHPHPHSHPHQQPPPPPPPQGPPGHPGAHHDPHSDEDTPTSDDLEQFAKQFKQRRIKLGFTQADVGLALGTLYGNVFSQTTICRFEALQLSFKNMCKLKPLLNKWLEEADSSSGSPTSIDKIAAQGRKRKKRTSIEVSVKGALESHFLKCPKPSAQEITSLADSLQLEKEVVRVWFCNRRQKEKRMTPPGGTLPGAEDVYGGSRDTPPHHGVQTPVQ

[1] = test system: 42D^ENZR cells vs 16D^CRPC cells; assay: Cell proliferation specificity, 42D^ENZR cells vs 16D^CRPC cells; type: cell-based; conditions: 42D cells express BRN2, 16D cells do not; some also LNCaP; result in words
Method: Plate 42DENZR (˜7000 cells per well) and 16D^CRPC (˜5000 cells per well) cells in 96 well plate with a volume of 100 μL per well. • 2. Next day 1 mL aliquots of media are combined with 3× the desired concentration of compounds. The aliquots are vortexed and 50 μL of each 3× concentration is added to the 100 μL of media in each well to give the ix desired concentration.
The following are the desired concentrations:
0, 10 nM, 100 nM, 500 nM, 1 μM, 2.5 μM, 5 μM, 10 μM, 15 μM, […], 30 μM. • 3. Approximately 72 hours later, 17 μL of 10% Glutaraldehyde is added to each well and plates are placed on a shaker for 20-30 minutes. • 4. Media is washed off the fixed cells by slow submersion in a container of water. Then the water is removed by tapping the plate upside down. • 5. 75 μL of Crystal Violet™ solution is added into the 96 well plates and placed on a shaker for ˜30 minutes. • 6. Media is washed off the fixed cells by repeated slow submersion in a container of water and the plates are allowed to dry over-night. • 7. Next day, 75 μL of Sorensen Solution is accurately pipetted into each well. The plates placed on a shaker for ˜30 minutes. • 8. Absorbance is measured in the plate at 590 nm.
Compounds that Show Specificity Towards 42D^ENZR Cells Vs 16D^CRPC Cells Progress to Step 4.
(§1) Where data is not available “na” is inserted.

[2] = Liver microsome metabolic stability, MLM; type: in vitro ADME; conditions: MLM (single value or second of two), 1 μM compound, 0.25 mg/mL protein; for Met Stab % (60 mins HLM/MLM): percent remaining at 60 min, 1 mM NADPH; for half-life at 1 µM: mouse, liver microsomes, pH 7.4, read-out: T1/2 in (mins HLM/MLM)
Method: (§2) Potassium phosphate buffer (Kphos) was prepared by adding 0.647 g potassium phosphate monobasic (KH2PO4) and 3.527 g potassium phosphate dibasic ([…]) to 400 mL of Milli-Q water. pH of the buffer was adjusted to 7.4 and volume was made up to 500 mL.
(§3) Microsomes (20 mg/mL) were diluted in KH2PO4 buffer to prepare a concentration of 0.357 mg/mL.
(§4) Stock solutions of BRN2 inhibitors were prepared in DMSO at a concentration of 1 mM
(§5) A stock solution of 3.33 mM NADPH (3.33×) was prepared by dissolving appropriate amount of NADPH in KH2PO4 buffer.
(§6) Total Incubation volume: 100 μL
(§7) Compound concentration: 1 μM
(§8) Protein Concentration: 0.25 mg/mL
(§9) An 1120 μL aliquot of Kphos buffer (50 mM, pH 7.4) containing liver microsomes (0.357 mg/mL) were added to individual 2 mL tubes (final concentration 0.25 mg/mL). Test compounds (1 mM) and positive controls were directly spiked into respective tubes to prepare a concentration of 1.428 μM (final concentration 1 μM). From the above mix, 70 μL was added to individual wells of 96 well reaction plates and pre-incubated in a 37° C. water bath for 5 min. All the reactions were initiated by adding 30 μL of 3.33 mM NADPH (final concentration 1 mM). Reactions without NADPH and buffer controls (minus NADPH) at 0 min and 60 min were also incubated to rule out non-NADPH metabolism or chemical instability in the incubation buffer. All reactions were terminated using 100 μL of ice-cold acetonitrile containing internal standard at 0, 5, 15, 30 and 60 min. The plates were centrifuged at 4000 RPM for 15 min and 100 μL aliquots were submitted for analysis by LC-MS/MS.
(§10) Samples were monitored for parent compounds disappearance in MRM mode using LC-MS/MS.
(§11) The percent remaining of test compounds and positive control in each sample was determined by considering peak area ratio in the 0 minute sample as 100%. The Half-life of compounds in microsomes is calculated by formula:
(§12) Half-life (t½) (min)=0.693/k, where k is gradient of line determined from plot of peak area ratio (compound peak area/internal standard peak area) against time.
(§13) In vitro intrinsic clearance (CL'int) (units in mL/min/kg) was calculated using the formula.
(§14) [formula] • For liver microsomes, scaling factor used was 45 mg microsomal protein per gm liver. • Indicates liver weight (gm) which varies species wise. For mice the liver weights are 90 gm.
as §1

[3] = Liver microsome metabolic stability, HLM; type: in vitro ADME; conditions: HLM (first of two values), 1 μM compound, 0.25 mg/mL protein; for Met Stab % (60 mins HLM/MLM): percent remaining at 60 min, 1 mM NADPH; for half-life at 1 µM: human, liver microsomes, pH 7.4, read-out: T1/2 in (mins HLM/MLM)
Method: as §2, §3, §4, §5, §6, §7, §8, §9, §10, §11, §12, §13, §14, §1

SMILES | inhibition at 10 µM (BRN2) [%] | inhibition at 30 µM (BRN2) [%] | specificity [1] | Met Stab % (60 mins HLM/MLM) [2] | Met Stab % (60 mins HLM/MLM) [3] | half-life at 1 µM [2] [min] | half-life at 1 µM [3] [min]
Cc1c(-c2csc(-c3ccccn3)n2)oc2ccccc12 [VPC-18-13] | 98.3 | 99.9 | VPC-18-13 (specific) | – | – | – | –
c1coc(-c2nc(-c3cc4ccccc4o3)cs2)c1 [VPC-18-14] | 95.9 | 96.6 | VPC-18-14 (specific) | – | – | – | –
c1ccc(-n2cc(-c3nc4ccccc4o3)cn2)cc1 [VPC-18-18] | 82.8 | 87 | VPC-18-18 (specific- affects 42D but not 16D) | – | – | – | –
Cn1c(-c2ccc(-c3ccc(F)cc3F)o2)nc2ccccc21 [VPC-18-41, 2-(5-(2,4-Difluorophenyl)furan-2-yl)-1-methyl-1H-benzo[d]imidazole] | 57.5 | 91.1 | – | 0/0% | 0/0% | – | –
Cn1c(-c2ccc(-c3ccccc3)o2)nc2ccc(Cl)cc21 [VPC-18-42, 6-Chloro-1-methyl-2-(5-phenylfuran-2-yl)-1H-benzo[d]imidazole] | 77.3 | 76.8 | – | 1% | 15% | 11 | 23
Cn1c(-c2csc(-c3ccccc3F)n2)nc2ccc(F)cc21 [VPC-18-45, 4-(6-Fluoro-1-methyl-1H-benzo[d]imidazol-2-yl)-2-(2-fluorophenyl)thiazole] | 7.53 | 47.2 | – | 22% | 35% | 32 | 42
Cn1c(-c2ccc(-c3ccccc3)o2)nc2ccc(S(N)(=O)=O)cc21 [VPC-18-47, 1-Methyl-2-(5-phenylfuran-2-yl)-1H-benzo[d]imidazole-6-sulfonamide] | 39.8 | 82.1 | – | 53% | 54% | > 60 | > 60
O=[N+]([O-])c1ccc2nc(-c3csc(-c4ccco4)n3)[nH]c2c1 [VPC-18-48, 2-(Furan-2-yl)-4-(6-nitro-1H-benzo[d]imidazol-2-yl)thiazole] | -6.56 | 91.2 | – | 2% | 9% | 10 | 17
Cc1c(-c2csc(-c3ccco3)n2)oc2ccccc12 [VPC-18-53, 2-(Furan-2-yl)-4-(3-methylbenzofuran-2-yl)thiazole] | 78.1 | 84.5 | – | 2% | 39% | 2 | 42
Clc1ccc2cc(-c3csc(-c4ccco4)n3)oc2c1 [VPC-18-66, 4-(6-chlorobenzofuran-2-yl)-2-(furan-2-yl)thiazole] | 82 | 94 | VPC-18-66 (specific- no effect on LNCaP and 16D) | 31% | – | 42 | –
c1ccc2oc(-c3csc(-c4ccoc4)n3)cc2c1 [VPC-18-76, 4-(benzofuran-2-yl)-2-(furan-3-yl)thiazole] | 96.3 | 94.9 | VPC-18-76 (specific) | 1% | – | 9 | –
c1coc(-c2nc(-c3coc4ccccc34)cs2)c1 [VPC-18-81, 4-(benzofuran-3-yl)-2-(furan-2-yl)thiazole] | 97 | 99 | VPC-18-81 (specific to 42D) | 2% | – | 11 | –
c1coc(-c2ncc(-c3cc4ccccc4o3)s2)c1 [VPC-18-90, 5-(benzofuran-2-yl)-2-(furan-2-yl)thiazole] | 80 | 92 | VPC-18-90 (specific) | 0% | – | 8 | –
Clc1ccc2cc(-c3csc(-c4ccc[nH]4)n3)oc2c1 [VPC-18-94, 4-(6-chlorobenzofuran-2-yl)-2-(1H-pyrrol-2-yl)thiazole] | 79.6 | 86.9 | VPC-18-94 (specific no effect on LNCaP and 16D) | 21% | – | 27 | –
Clc1ccc2cc(-c3coc(-c4ccc[nH]4)n3)oc2c1 [VPC-18-127, 4-(6-chlorobenzofuran-2-yl)-2-(1H-pyrrol-2-yl)oxazole] | – | – | VPC-18- 127 (specific) | 16% | – | 22 | –
Clc1ccc2cc(-c3nccc(-c4ccc[nH]4)n3)oc2c1 [VPC-18-133, 2-(6-chlorobenzofuran-2-yl)-4-(1H-pyrrol-2-yl)pyrimidine] | – | – | VPC-18- 133 (specific) | 1% | – | 8 | –
Cn1cccc1-c1nc(-c2cc3ccc(Cl)cc3o2)cs1 [VPC-18-139, 4-(6-chlorobenzofuran-2-yl)-2-(1-methyl-1H-pyrrol-2-yl)thiazole] | – | – | VPC-18- 139 (specific) | 23% | – | 30 | –
FC(F)(F)c1ccc2cc(-c3nccc(-c4ccc[nH]4)n3)oc2c1 [VPC-18-140, 4-(1H-pyrrol-2-yl)-2-(6-(trifluoromethyl)benzofuran-2-yl)pyrimidine] | – | – | VPC-18- 140 (specific) | 2% | – | 10 | –
Clc1ccc2cc(-c3nccc(-c4ccco4)n3)oc2c1 [VPC-18-141, 2-(6-chlorobenzofuran-2-yl)-4-(furan-2-yl)pyrimidine] | – | – | VPC-18- 141 (specific) | 3% | – | 13 | –
Cn1c(-c2ccc(-c3ccccc3)o2)nc2ccccc21 [VPC-18] | 97.6 | 99.4 | VPC-18 (42D not 16D) | – | – | – | –
